From US11130793B2, “GLP-1/GLP-2 dual agonists” (Zealand Pharma A/S, priority 2016, dated 2021) come the findings set out here.

One test addresses T1, human GLP-1 receptor (Homo sapiens, UniProt P43220).
T1 construct: expressed in transfected cells
Nature of the test: GLP-1 receptor potency assay (cAMP AlphaScreen, HEK293 cells stably expressing GLP-1R). The class given is cell-based. To be noted: cAMP response, HEK293 cells expressing human GLP-1R; read-out: EC50 GLP-1. In a few lines: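 A HEK293 clone stably expressing cloned human GLP-1R (G418-selected) was stimulated with compound. Intracellular cAMP was measured by AlphaScreen. Responses were normalized to positive and vehicle controls, and EC50 and maximal response were fitted by 4-parameter logistic regression.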
On the technique in general: Alpha assays give light when donor and acceptor beads are brought close together.

A further test has as its target T2, human GLP-2 receptor (Homo sapiens, UniProt O95838, D470N).
T2 sequence (O95838 1-553 D470N): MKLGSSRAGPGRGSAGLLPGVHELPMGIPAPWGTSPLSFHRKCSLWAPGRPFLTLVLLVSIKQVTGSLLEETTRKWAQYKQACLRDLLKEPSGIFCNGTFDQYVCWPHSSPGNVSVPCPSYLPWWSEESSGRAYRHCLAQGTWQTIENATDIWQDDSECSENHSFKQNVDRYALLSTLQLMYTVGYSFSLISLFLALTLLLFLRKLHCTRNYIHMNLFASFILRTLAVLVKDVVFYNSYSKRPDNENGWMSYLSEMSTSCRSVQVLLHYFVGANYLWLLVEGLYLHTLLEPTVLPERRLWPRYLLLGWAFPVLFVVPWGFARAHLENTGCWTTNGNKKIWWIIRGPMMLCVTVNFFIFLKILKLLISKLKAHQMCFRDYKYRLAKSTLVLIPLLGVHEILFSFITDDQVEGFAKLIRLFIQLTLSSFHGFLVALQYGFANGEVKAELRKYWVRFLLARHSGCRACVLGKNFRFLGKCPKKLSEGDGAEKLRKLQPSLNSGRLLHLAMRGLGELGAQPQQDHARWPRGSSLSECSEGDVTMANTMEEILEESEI
The test is described as follows: GLP-2 receptor potency assay (cAMP AlphaScreen, HEK293 cells stably expressing GLP-2R). The class given is cell-based. The note with it: cAMP response, HEK293 cells expressing human GLP-2R. An outline of the steps: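 HEK293 cells stably expressing human GLP-2R (G418-selected clone); intracellular cAMP measured by AlphaScreen. Responses normalized to positive and vehicle controls; EC50 and maximal response from 4-parameter logistic fit.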

Square brackets hold non-standard residues; d marks the D form. Peptide text beside a SMILES is read from it. Aib = CC(C)(N)C(=O)O

T1 sequence (P43220 24-463): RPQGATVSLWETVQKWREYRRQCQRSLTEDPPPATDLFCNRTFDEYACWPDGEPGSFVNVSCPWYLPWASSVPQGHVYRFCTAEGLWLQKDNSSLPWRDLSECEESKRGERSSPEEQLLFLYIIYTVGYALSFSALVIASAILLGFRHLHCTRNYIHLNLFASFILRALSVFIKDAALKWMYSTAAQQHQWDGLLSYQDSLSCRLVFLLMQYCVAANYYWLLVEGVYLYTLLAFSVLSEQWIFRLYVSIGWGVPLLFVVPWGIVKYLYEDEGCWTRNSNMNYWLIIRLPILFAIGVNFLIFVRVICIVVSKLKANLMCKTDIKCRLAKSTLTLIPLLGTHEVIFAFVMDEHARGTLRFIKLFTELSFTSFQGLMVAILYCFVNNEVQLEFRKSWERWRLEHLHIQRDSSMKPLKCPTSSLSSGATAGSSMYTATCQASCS

For orientation: EC50 means the concentration that produces a half-maximal response. As to `CC[C@H](C)[C@H](NC(=O)[C@H](Cc1ccccc1)NC(=O)[C@H](CC(=O)O)NC(=O)[C@H](CCCNC(=N)N)NC(=O)[C@H](C)NC(=O)[C@H](C)NC(=O)[C@H](CCC(N)=O)NC(=O)[C@H](CCC(=O)O)NC(=O)[C@H](CC(=O)O)NC(=O)[C@H](CC(C)C)NC(=O)[C@@H](NC(=O)[C@@H](NC(=O)[C@H](C)NC(=O)[C@H](CC(C)C)NC(=O)[C@H](CCC(=O)O)NC(=O)[C@H](CO)NC(=O)[C@@H](NC(=O)[C@H](Cc1ccccc1)NC(=O)[C@@H](NC(=O)CNC(=O)[C@H](CCC(=O)O)NC(=O)C(C)(C)NC(=O)[C@@H](N)Cc1c[nH]cn1)[C@@H](C)O)[C@@H](C)O)[C@@H](C)O)[C@@H](C)CC)C(=O)N[C@@H](C)C(=O)N[C@@H](Cc1c[nH]c2ccccc12)C(=O)N[C@@H](CC(C)C)C(=O)N[C@H](C(=O)N[C@@H](CO)C(=O)N[C@@H](Cc1c[nH]cn1)C(=O)N[C@@H](CCCCN)C(=O)N[C@H](C(=O)N[C@H](C(=O)N[C@@H](CC(=O)O)C(=O)O)[C@@H](C)O)[C@@H](C)CC)[C@@H](C)CC` [Compound 18] (H-H[Aib]EGTFTSELATILDEQAARDFIAWLISHKITD-OH), the EC50 at human GLP-1 receptor was found to be 0.006 nM; at human GLP-2 receptor, 0.054 nM.

As to `CC[C@H](C)[C@H](NC(=O)[C@H](CC(C)C)NC(=O)[C@H](Cc1c[nH]c2ccccc12)NC(=O)[C@H](C)NC(=O)[C@@H](NC(=O)[C@H](Cc1ccccc1)NC(=O)[C@H](CC(=O)O)NC(=O)[C@H](CCCNC(=N)N)NC(=O)[C@H](C)NC(=O)[C@H](C)NC(=O)[C@H](CCC(N)=O)NC(=O)[C@H](CCC(=O)O)NC(=O)[C@H](CC(=O)O)NC(=O)[C@H](CC(C)C)NC(=O)[C@@H](NC(=O)[C@@H](NC(=O)[C@H](CO)NC(=O)[C@H](CC(C)C)NC(=O)[C@H](CCC(=O)O)NC(=O)[C@H](CO)NC(=O)[C@@H](NC(=O)[C@H](Cc1ccccc1)NC(=O)[C@@H](NC(=O)CNC(=O)[C@H](CCC(=O)O)NC(=O)C(C)(C)NC(=O)[C@@H](N)Cc1c[nH]cn1)[C@@H](C)O)[C@@H](C)O)[C@@H](C)O)[C@@H](C)CC)[C@@H](C)CC)C(=O)N[C@@H](C)C(=O)N[C@@H](Cc1c[nH]cn1)C(=O)N[C@@H](CCCCN)C(=O)N[C@H](C(=O)N[C@H](C(=O)N[C@@H](CC(=O)O)C(=O)O)[C@@H](C)O)[C@@H](C)CC` [Compound 10] (H-H[Aib]EGTFTSELSTILDEQAARDFIAWLIAHKITD-OH), the half-maximal effective concentration (EC50) on human GLP-1 receptor is 0.005 nM; at human GLP-2 receptor, 0.05 nM.

For the compound `CC[C@H](C)[C@H](NC(=O)[C@H](Cc1ccccc1)NC(=O)[C@H](CC(=O)O)NC(=O)[C@H](CCCNC(=N)N)NC(=O)[C@H](C)NC(=O)[C@H](C)NC(=O)[C@H](CCC(N)=O)NC(=O)[C@H](CCC(=O)O)NC(=O)[C@H](CC(=O)O)NC(=O)[C@H](CC(C)C)NC(=O)[C@@H](NC(=O)[C@@H](NC(=O)[C@H](C)NC(=O)[C@H](CC(C)C)NC(=O)[C@H](CCC(=O)O)NC(=O)[C@H](CO)NC(=O)[C@@H](NC(=O)[C@H](Cc1ccccc1)NC(=O)[C@@H](NC(=O)CNC(=O)[C@H](CCC(=O)O)NC(=O)C(C)(C)NC(=O)[C@@H](N)Cc1c[nH]cn1)[C@@H](C)O)[C@@H](C)O)[C@@H](C)O)[C@@H](C)CC)C(=O)N[C@@H](C)C(=O)N[C@@H](Cc1c[nH]c2ccccc12)C(=O)N[C@@H](CC(C)C)C(=O)N[C@H](C(=O)N[C@@H](CCC(N)=O)C(=O)N[C@@H](Cc1c[nH]cn1)C(=O)N[C@@H](CCCCN)C(=O)N[C@H](C(=O)N[C@H](C(=O)N[C@@H](CC(=O)O)C(=O)O)[C@@H](C)O)[C@@H](C)CC)[C@@H](C)CC` [Compound 15] (H-H[Aib]EGTFTSELATILDEQAARDFIAWLIQHKITD-OH), the values for the EC50 on human GLP-1 receptor and at human GLP-2 receptor were 0.005 nM and 0.038 nM, respectively.

Take `CC[C@H](C)[C@H](NC(=O)[C@H](CC(C)C)NC(=O)[C@H](Cc1c[nH]c2ccccc12)NC(=O)[C@H](C)NC(=O)[C@@H](NC(=O)[C@H](Cc1ccccc1)NC(=O)[C@H](CC(=O)O)NC(=O)[C@H](CCCNC(=N)N)NC(=O)[C@H](C)NC(=O)[C@H](C)NC(=O)[C@H](CCC(N)=O)NC(=O)[C@H](CCC(=O)O)NC(=O)[C@H](CC(=O)O)NC(=O)[C@H](CC(C)C)NC(=O)[C@@H](NC(=O)[C@@H](NC(=O)[C@H](C)NC(=O)[C@H](CC(C)C)NC(=O)[C@H](CCC(=O)O)NC(=O)[C@H](CO)NC(=O)[C@H](CO)NC(=O)[C@H](Cc1ccccc1)NC(=O)[C@@H](NC(=O)CNC(=O)[C@H](CCC(=O)O)NC(=O)C(C)(C)NC(=O)[C@@H](N)Cc1c[nH]cn1)[C@@H](C)O)[C@@H](C)O)[C@@H](C)CC)[C@@H](C)CC)C(=O)N[C@@H](C)C(=O)N[C@@H](Cc1c[nH]cn1)C(=O)N[C@@H](CCCCN)C(=O)N[C@H](C(=O)N[C@H](C(=O)N[C@@H](CC(=O)O)C(=O)O)[C@@H](C)O)[C@@H](C)CC` [Compound 2] (H-H[Aib]EGTFSSELATILDEQAARDFIAWLIAHKITD-OH): the EC50 on human GLP-1 receptor came out at 0.046 nM; at human GLP-2 receptor, 0.034 nM.

With `CC[C@H](C)[C@H](NC(=O)[C@H](CC(C)C)NC(=O)[C@H](Cc1c[nH]c2ccccc12)NC(=O)[C@H](C)NC(=O)[C@@H](NC(=O)[C@H](Cc1ccccc1)NC(=O)[C@H](CC(=O)O)NC(=O)[C@H](CCCNC(=N)N)NC(=O)[C@H](C)NC(=O)[C@H](C)NC(=O)[C@H](CCCCN)NC(=O)CNC(=O)[C@H](CC(=O)O)NC(=O)[C@H](CC(C)C)NC(=O)[C@@H](NC(=O)[C@@H](NC(=O)[C@H](C)NC(=O)[C@H](CC(C)C)NC(=O)[C@H](CCC(=O)O)NC(=O)[C@H](CO)NC(=O)[C@@H](NC(=O)[C@H](Cc1ccccc1)NC(=O)[C@H](CO)NC(=O)CNC(=O)[C@H](CCC(=O)O)NC(=O)C(C)(C)NC(=O)[C@@H](N)Cc1c[nH]cn1)[C@@H](C)O)[C@@H](C)O)[C@@H](C)CC)[C@@H](C)CC)C(=O)N[C@@H](C)C(=O)N[C@@H](Cc1c[nH]cn1)C(=O)N[C@@H](CCCCN)C(=O)N[C@H](C(=O)N[C@H](C(=O)N[C@@H](CC(=O)O)C(=O)O)[C@@H](C)O)[C@@H](C)CC` [Compound 31] (H-H[Aib]EGSFTSELATILDGKAARDFIAWLIAHKITD-OH), the EC50 stood at 0.02 nM on human GLP-1 receptor and 0.078 nM at human GLP-2 receptor.

For `CC[C@H](C)[C@H](NC(=O)[C@H](Cc1ccccc1)NC(=O)[C@H](CC(=O)O)NC(=O)[C@H](CCCNC(=N)N)NC(=O)[C@H](C)NC(=O)[C@H](C)NC(=O)[C@H](CCC(N)=O)NC(=O)[C@H](CCC(=O)O)NC(=O)[C@H](CC(=O)O)NC(=O)[C@H](CC(C)C)NC(=O)[C@@H](NC(=O)[C@@H](NC(=O)[C@H](C)NC(=O)[C@H](CC(C)C)NC(=O)[C@H](CCC(=O)O)NC(=O)[C@H](CO)NC(=O)[C@@H](NC(=O)[C@H](Cc1ccccc1)NC(=O)[C@@H](NC(=O)CNC(=O)[C@H](CCC(=O)O)NC(=O)C(C)(C)NC(=O)[C@@H](N)Cc1c[nH]cn1)[C@@H](C)O)[C@@H](C)O)[C@@H](C)O)[C@@H](C)CC)C(=O)N[C@@H](C)C(=O)N[C@@H](Cc1c[nH]c2ccccc12)C(=O)N[C@@H](CC(C)C)C(=O)N[C@@H](CCC(N)=O)C(=O)N[C@@H](C)C(=O)N[C@@H](Cc1c[nH]cn1)C(=O)N[C@@H](CCCCN)C(=O)N[C@H](C(=O)N[C@H](C(=O)N[C@@H](CC(=O)O)C(=O)O)[C@@H](C)O)[C@@H](C)CC` [Compound 13] (H-H[Aib]EGTFTSELATILDEQAARDFIAWLQAHKITD-OH), the EC50 at human GLP-1 receptor worked out at 0.016 nM; at human GLP-2 receptor it was 0.083 nM.
